Columns and labels:
[1] = system: comprehensive panel of kinases (456 kinases); experiment: Kinase panel binding screen (456 kinases, PIKfyve not included); conditions: screening concentration 1 μM
Source text: Next, apilimod was screened against a comprehensive panel of kinases (PIKfyve not included).

[2] = system: PI(3,5)P2 in H4 neuroglioma cells; experiment: Immunostaining of PI(3,5)P2 in H4 neuroglioma cells; type: cell-based, human; conditions: after 24 h
Source text: (§1) PIKfyve produces the lipid products PI(3,5)P2 and PI5P, which in turn serve to establish membrane identity and control endolysosomal dynamics. Studies have shown that the PI(3,5)P2 depletion arising from inhibition of PIKfyve produces a swollen endolysosome phenotype. […] This phenotype was reversible, and cell lines reverted to normal appearance within 3-4 days after drug removal.

H4 neuroglioma cells = experiment: DIC imaging of endolysosomal (vacuole) phenotype in H4 neuroglioma cells; type: cell-based, human
Source text: FIG. 4: Left: DIC images of H4 transduced with either non-targeting shRNA (control) or hairpin targeted to the PIKFYVE gene (shPIKFYVE). Right: Viability of H4 cells after the induction of either control or PIKFYVE shRNA with doxycycline.
as §1

## Cc1cccc(/C=N/Nc2cc(N3CCOCC3)nc(OCCc3ccccn3)n2)c1 [apilimod]
[1]
  binding to kinases of the panel: did not bind to any of the 456 kinases tested
[2]
  decrease of PI(3,5)P2: ~70%
H4 neuroglioma cells; H4 neuroglioma cells, 100 nM apilimod, 24 hrs (FIG. 3)
  endolysosomal (vacuole) phenotype: striking swollen endolysosomal (vacuole) phenotype
H4 neuroglioma cells; after drug removal
  time to revert to normal appearance after drug removal: 3 to 4 days

From patent publication US20180036420A1, “METHODS FOR ENHANCING THE DELIVERY OF MOLECULES ACROSS THE BLOOD BRAIN BARRIER” (LAM Therapeutics, Inc., priority 2016, published 2018)
